Measurements reported in patent US20240398784A1, “C-LINKED ISOQUINOLINE AMIDES AS LRRK2 INHIBITORS, PHARMACEUTICAL COMPOSITIONS, AND USES THEREOF” (Merck Sharp & Dohme LLC, priority 2021, published 2024).

Biological target: LRRK2 G2019S (Homo sapiens, UniProt Q5S007, G2019S)
Assay: LRRK2 G2019S Km ATP LanthaScreen assay
Type: biochemical
Details: read-out: LRRK2 pIC50 (converted)
Description: Unless otherwise noted, all reactions are magnetically stirred. Unless otherwise noted, when diethyl ether is used in the experiments described below, it is Fisher ACS certified material and is stabilized with BHT. Unless otherwise noted, “concentrated” and/or “solvent removed under reduced pressure” means evaporating the solvent from a solution or mixture using a rotary evaporator or vacuum pump. Unless otherwise noted, flash chromatography is carried out on a Teledyne Isco (Lincoln, NE), Analogix (Burlington, WI), or Biotage (Stockholm, SWE) automated chromatography system using a commercially available cartridge as the column. Columns may be purchased from Teledyne Isco, Analogix, Biotage, Varian (Palo Alto, CA), or Supelco (Bellefonte, PA) and are usually filled with silica gel as the stationary phase. Reverse phase prep-HPLC conditions, where used, can be found at the end of each experimental section. Aqueous solutions were concentrated on a Genevac (Ipswich, ENG) or by freeze-drying/lyophilization.

Chain of LRRK2 G2019S (Q5S007 whole entry G2019S): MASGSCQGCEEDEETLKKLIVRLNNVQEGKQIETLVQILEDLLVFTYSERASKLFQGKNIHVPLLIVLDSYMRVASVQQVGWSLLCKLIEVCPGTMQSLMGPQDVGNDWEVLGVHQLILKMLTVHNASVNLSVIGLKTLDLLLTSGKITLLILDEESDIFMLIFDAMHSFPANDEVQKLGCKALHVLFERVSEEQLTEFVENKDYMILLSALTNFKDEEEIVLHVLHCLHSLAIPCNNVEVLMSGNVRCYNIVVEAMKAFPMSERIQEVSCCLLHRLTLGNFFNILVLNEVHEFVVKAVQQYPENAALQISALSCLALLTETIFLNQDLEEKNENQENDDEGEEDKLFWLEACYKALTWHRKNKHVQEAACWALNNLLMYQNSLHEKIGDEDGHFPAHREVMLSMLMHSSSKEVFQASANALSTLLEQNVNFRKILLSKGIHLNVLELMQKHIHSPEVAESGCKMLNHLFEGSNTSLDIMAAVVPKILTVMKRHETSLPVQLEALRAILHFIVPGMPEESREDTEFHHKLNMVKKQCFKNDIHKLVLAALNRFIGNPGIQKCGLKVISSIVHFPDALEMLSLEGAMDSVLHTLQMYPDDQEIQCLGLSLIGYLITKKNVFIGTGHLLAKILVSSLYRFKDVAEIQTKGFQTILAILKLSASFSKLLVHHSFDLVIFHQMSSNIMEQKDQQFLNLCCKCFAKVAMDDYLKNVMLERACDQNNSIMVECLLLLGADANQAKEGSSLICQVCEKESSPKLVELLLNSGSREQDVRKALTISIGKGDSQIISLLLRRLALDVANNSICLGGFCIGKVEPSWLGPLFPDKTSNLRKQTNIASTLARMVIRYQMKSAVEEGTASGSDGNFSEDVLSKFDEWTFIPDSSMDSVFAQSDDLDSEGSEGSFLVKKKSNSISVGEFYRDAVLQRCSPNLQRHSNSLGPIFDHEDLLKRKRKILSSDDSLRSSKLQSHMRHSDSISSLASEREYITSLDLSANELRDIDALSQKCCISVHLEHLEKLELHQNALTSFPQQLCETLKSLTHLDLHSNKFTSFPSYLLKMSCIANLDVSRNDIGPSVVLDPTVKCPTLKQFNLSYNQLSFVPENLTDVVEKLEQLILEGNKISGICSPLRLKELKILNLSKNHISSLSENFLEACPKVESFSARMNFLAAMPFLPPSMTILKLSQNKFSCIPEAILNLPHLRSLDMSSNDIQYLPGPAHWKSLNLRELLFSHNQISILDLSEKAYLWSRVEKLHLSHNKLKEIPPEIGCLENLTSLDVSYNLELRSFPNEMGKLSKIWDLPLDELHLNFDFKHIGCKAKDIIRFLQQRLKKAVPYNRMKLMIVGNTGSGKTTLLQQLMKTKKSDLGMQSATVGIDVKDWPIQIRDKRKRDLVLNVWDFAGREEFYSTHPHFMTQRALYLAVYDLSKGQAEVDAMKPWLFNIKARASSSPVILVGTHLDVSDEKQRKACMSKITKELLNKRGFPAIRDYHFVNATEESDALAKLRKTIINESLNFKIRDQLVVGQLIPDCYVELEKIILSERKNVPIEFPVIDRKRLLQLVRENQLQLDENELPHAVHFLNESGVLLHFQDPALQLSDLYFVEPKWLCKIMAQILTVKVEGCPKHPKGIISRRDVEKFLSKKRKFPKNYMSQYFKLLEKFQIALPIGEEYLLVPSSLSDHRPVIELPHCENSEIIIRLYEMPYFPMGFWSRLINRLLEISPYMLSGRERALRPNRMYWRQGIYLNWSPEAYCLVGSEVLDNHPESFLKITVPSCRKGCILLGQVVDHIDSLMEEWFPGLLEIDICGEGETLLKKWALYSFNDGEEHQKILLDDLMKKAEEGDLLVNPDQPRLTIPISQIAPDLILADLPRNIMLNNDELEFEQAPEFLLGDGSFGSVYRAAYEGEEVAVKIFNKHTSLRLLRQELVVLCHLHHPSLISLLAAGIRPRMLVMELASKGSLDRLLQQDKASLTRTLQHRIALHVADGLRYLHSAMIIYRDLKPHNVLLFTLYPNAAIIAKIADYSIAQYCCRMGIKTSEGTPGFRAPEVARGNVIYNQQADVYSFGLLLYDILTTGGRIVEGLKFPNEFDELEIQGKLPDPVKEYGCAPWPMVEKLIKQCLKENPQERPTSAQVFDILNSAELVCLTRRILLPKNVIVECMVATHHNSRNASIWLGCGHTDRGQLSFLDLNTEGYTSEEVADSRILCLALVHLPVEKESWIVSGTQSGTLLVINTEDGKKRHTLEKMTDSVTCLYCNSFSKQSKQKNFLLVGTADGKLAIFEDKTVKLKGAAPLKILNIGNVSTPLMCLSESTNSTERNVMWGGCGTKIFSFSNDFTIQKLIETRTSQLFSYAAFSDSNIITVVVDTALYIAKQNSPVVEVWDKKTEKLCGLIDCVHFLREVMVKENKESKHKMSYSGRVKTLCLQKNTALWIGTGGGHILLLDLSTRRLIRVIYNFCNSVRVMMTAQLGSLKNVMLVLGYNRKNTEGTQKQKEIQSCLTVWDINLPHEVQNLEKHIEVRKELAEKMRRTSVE

Structure (SMILES) | IC50 [nM]
O=C(Nc1cc2cc(C3CCN(C4COC4)CC3)c(Cl)cc2cn1)C1CC12CCC(F)(F)CC2 (single isomer, unassigned) [Ex-1.8, (R or S)-N-(7-chloro-6-(1-(oxetan-3-yl)piperidin-4-yl)isoquinolin-3-yl)-6,6-difluorospiro[2.5]octane-1-carboxamide] | 21.4
N#CC1(c2ccc3cnc(NC(=O)C4CCC4)cc3c2)CC12CC2 (single isomer, unassigned) [Ex-1.15, (R or S)-N-(6-(1-cyanospiro[2.2]pentan-1-yl)isoquinolin-3-yl)cyclobutanecarboxamide] | 3.24
CC1(N2CCC(c3cc4cc(NC(=O)[C@@H]5CCCCO5)ncc4cc3Cl)CC2)COCC1O (single isomer, unassigned) [Ex-1.17, (S)-N-(7-chloro-6-(1-((3R,4R or 3S,4S)-4-hydroxy-3-methyltetrahydrofuran-3-yl)piperidin-4-yl)isoquinolin-3-yl)tetrahydro-2H-pyran-2-carboxamide] | 0.178
CC1(N2CCC(c3cc4cc(NC(=O)C5CC(F)(F)C5)ncc4cc3Cl)CC2)COCC1O (single isomer, unassigned) [Ex-1.18, N-(7-chloro-6-(1-((3R,4R or 3S,4S)-4-hydroxy-3-methyltetrahydrofuran-3-yl)piperidin-4-yl)isoquinolin-3-yl)-3,3-difluorocyclobutane-1-carboxamide] | 1.35
CN1CCC(C(=O)Nc2cc3cc(C4CCN(C5(C)COCC5O)CC4)c(Cl)cc3cn2)CC1 (single isomer, unassigned) [Ex-1.19, N-(7-chloro-6-(1-((3R,4R or 3S,4S)-4-hydroxy-3-methyltetrahydrofuran-3-yl)piperidin-4-yl)isoquinolin-3-yl)-1-methylpiperidine-4-carboxamide] | 0.38
CC1(N2CCC(c3cc4cc(NC(=O)C5C6CCCC65)ncc4cc3Cl)CC2)COCC1O (single isomer, unassigned) [Ex-1.20, N-(7-chloro-6-(1-((3R,4R or 3S,4S)-4-hydroxy-3-methyltetrahydrofuran-3-yl)piperidin-4-yl)isoquinolin-3-yl)bicyclo[3.1.0]hexane-6-carboxamide] | 0.182
CC(C)(O)C1CC1C(=O)Nc1cc2cc(C3CCN(C4(C)COCC4O)CC3)c(Cl)cc2cn1 (single isomer, unassigned) [Ex-1.21, (1R,2R or 1S,2S)-N-(7-chloro-6-(1-((3R,4R or 3S,4S)-4-hydroxy-3-methyltetrahydrofuran-3-yl)piperidin-4-yl)isoquinolin-3-yl)-2-(2-hydroxypropan-2-yl)cyclopropane-1-carboxamide] | 0.0912
Cn1cc(C2CC2C(=O)Nc2cc3cc(C4(C#N)CC45CC5)ccc3cn2)cn1 (single isomer, unassigned) [Ex-1.23, (1R,2R or 1S,2S)-N-(6-((R or S)-1-cyanospiro[2.2]pentan-1-yl)isoquinolin-3-yl)-2-(1-methyl-1H-pyrazol-4-yl)cyclopropane-1-carboxamide] | 1.58
Cn1cc(C2CC2C(=O)Nc2cc3cc(C4(C#N)CC45CC5)ccc3cn2)cn1 (single isomer, unassigned) [Ex-1.24, (1R,2R or 1S,2S)-N-(6-((R or S)-1-cyanospiro[2.2]pentan-1-yl)isoquinolin-3-yl)-2-(1-methyl-1H-pyrazol-4-yl)cyclopropane-1-carboxamide] | 0.0813
CCC1C(C(=O)Nc2cc3cc(C4(C#N)CC45CC5)ccc3cn2)C1c1cnn(C)c1 (single isomer, unassigned) [Ex-1.25, (1R,3R or 1S,3S)-N-(6-((R or S)-1-cyanospiro[2.2]pentan-1-yl)isoquinolin-3-yl)-2-ethyl-3-(1-methyl-1H-pyrazol-4-yl)cyclopropane-1-carboxamide] | 0.661
CC(C)(O)C1CC(C(=O)Nc2cc3cc(C4(C#N)CC45CC5)ccc3cn2)C1 (single isomer, unassigned) [Ex-1.26, (1R,3R or 1S,3S)-N-(6-((R or S)-1-cyanospiro[2.2]pentan-1-yl)isoquinolin-3-yl)-3-(2-hydroxypropan-2-yl)cyclobutane-1-carboxamide] | 3.39
CC1(C)CC(C(=O)Nc2cc3cc(C4(C#N)CC45CC5)ccc3cn2)CC(C)(C)O1 (single isomer, unassigned) [Ex-1.27, N-(6-((R or S)-1-cyanospiro[2.2]pentan-1-yl)isoquinolin-3-yl)-2,2,6,6-tetramethyltetrahydro-2H-pyran-4-carboxamide] | 9.77
CC(C)OC1CCC(C(=O)Nc2cc3cc(C4(C#N)CC45CC5)ccc3cn2)OC1 (single isomer, unassigned) [Ex-1.28, N-(6-((R or S)-1-cyanospiro[2.2]pentan-1-yl)isoquinolin-3-yl)-5R or 5S-isopropoxytetrahydro-2H-pyran-2R-carboxamide] | 24
N#CC1(c2ccc3cnc(NC(=O)[C@@H]4C[C@@H](O)[C@H](F)C4)cc3c2)CC12CC2 (single isomer, unassigned) [Ex-1.29, (1R,3R,4R)-N-(6-((R or S)-1-cyanospiro[2.2]pentan-1-yl)isoquinolin-3-yl)-3-fluoro-4-hydroxycyclopentane-1-carboxamide] | 20.4
N#CC1(c2ccc3cnc(NC(=O)C4CCN(C(=O)C(F)(F)F)CC4)cc3c2)CC12CC2 (single isomer, unassigned) [Ex-1.30, N-(6-((R or S)-1-cyanospiro[2.2]pentan-1-yl)isoquinolin-3-yl)-1-(2,2,2-trifluoroacetyl)piperidine-4-carboxamide] | 14.1
CN1CCO[C@@H](C(=O)Nc2cc3cc(C4(C#N)CC45CC5)ccc3cn2)C1 (single isomer, unassigned) [Ex-1.31, (2R)-N-(6-((R or S)-1-cyanospiro[2.2]pentan-1-yl)isoquinolin-3-yl)-4-methylmorpholine-2-carboxamide] | 11.7
CCC(=O)N1CCC(C(=O)Nc2cc3cc(C4(C#N)CC45CC5)ccc3cn2)CC1 (single isomer, unassigned) [Ex-1.32, N-(6-((R or S)-1-cyanospiro[2.2]pentan-1-yl)isoquinolin-3-yl)-1-propionylpiperidine-4-carboxamide] | 2.34
N#CC1(c2ccc3cnc(NC(=O)C4C5Oc6cc(Cl)ncc6C54)cc3c2)CC12CC2 (single isomer, unassigned) [Ex-1.33, (1S,1aR,6bS or 1R,1aS,6bR)-4-chloro-N-(6-((R or S)-1-cyanospiro[2.2]pentan-1-yl)isoquinolin-3-yl)-1a,6b-dihydro-1H-cyclopropa[4,5]furo[3,2-c]pyridine-1-carboxamide] | 28.2
CCC1C(C(=O)Nc2cc3cc(C4CCN(C5(C)COCC5F)CC4)c(Cl)cc3cn2)C1c1cnn(C)c1 (single isomer, unassigned) [Ex-1.34, (1R,2R,3R or 1R,2S,3R or 1S,2R,3S, or 1S,2S,3S)-N-(7-chloro-6-(1-((3R,4R or 3S,4S)-4-fluoro-3-methyltetrahydrofuran-3-yl)piperidin-4-yl)isoquinolin-3-yl)-2-ethyl-3-(1-methyl-1H-pyrazol-4-yl)cyclopropane-1-carboxamide] | 0.0813
CC1(N2CCC(c3cc4cc(NC(=O)CC5CCOCC5)ncc4cc3Cl)CC2)COCC1O (single isomer, unassigned) [Ex-1.39, N-(7-chloro-6-(1-((3R,4R or 3S,4S)-4-hydroxy-3-methyltetrahydrofuran-3-yl)piperidin-4-yl)isoquinolin-3-yl)-2-(tetrahydro-2H-pyran-4-yl)acetamide] | 0.398
Cc1nn(C)cc1CC(=O)Nc1cc2cc(C3CCN(C4(C)COCC4O)CC3)c(Cl)cc2cn1 (single isomer, unassigned) [Ex-1.40, N-(7-chloro-6-(1-((3R,4R or 3S,4S)-4-hydroxy-3-methyltetrahydrofuran-3-yl)piperidin-4-yl)isoquinolin-3-yl)-2-(1,3-dimethyl-1H-pyrazol-4-yl)acetamide] | 0.112
N#CC1(c2ccc3cnc(NC(=O)Cc4cccnc4)cc3c2)CC12CC2 (single isomer, unassigned) [Ex-1.41, (R or S)-N-(6-(1-cyanospiro[2.2]pentan-1-yl)isoquinolin-3-yl)-2-(pyridin-3-yl)acetamide] | 0.708
N#CC1(c2ccc3cnc(NC(=O)Cc4cnn(C(F)F)c4)cc3c2)CC12CC2 (single isomer, unassigned) [Ex-1.43, (R or S)-N-(6-(1-cyanospiro[2.2]pentan-1-yl)isoquinolin-3-yl)-2-(1-(difluoromethyl)-1H-pyrazol-4-yl)acetamide] | 7.08
CC(C)(O)c1ccc(CC(=O)Nc2cc3cc(C4(C#N)CC45CC5)ccc3cn2)cc1 (single isomer, unassigned) [Ex-1.44, (R or S)-N-(6-(1-cyanospiro[2.2]pentan-1-yl)isoquinolin-3-yl)-2-(4-(2-hydroxypropan-2-yl)phenyl)acetamide] | 22.9
CC(C)(O)c1cccc(CC(=O)Nc2cc3cc(C4(C#N)CC45CC5)ccc3cn2)c1 (single isomer, unassigned) [Ex-1.45, (R or S)-N-(6-(1-cyanospiro[2.2]pentan-1-yl)isoquinolin-3-yl)-2-(3-(2-hydroxypropan-2-yl)phenyl)acetamide] | 12.9
CC(C)N1CCOC(CC(=O)Nc2cc3cc(C4(C#N)CC45CC5)ccc3cn2)C1 (single isomer, unassigned) [Ex-1.46, (R or S)-N-(6-(1-cyanospiro[2.2]pentan-1-yl)isoquinolin-3-yl)-2-(4-isopropylmorpholin-2-yl)acetamide] | 13.8
CN1CCOC(CC(=O)Nc2cc3cc(C4(C#N)CC45CC5)ccc3cn2)C1 (single isomer, unassigned) [Ex-1.47, (R or S)-N-(6-(1-cyanospiro[2.2]pentan-1-yl)isoquinolin-3-yl)-2-(4-methylmorpholin-2-yl)acetamide] | 20
